How the values were obtained:
[1] = Population pharmacokinetic model (linear 5-compartment, NONMEM) of venous plasma concentrations; design: species or system human; details: population PK model; lean body weight covariate
[2] = Stella reports, cited from earlier work
[3] = Pharmacokinetic/pharmacodynamic models (probabilistic and continuous) for level of sedation (MOAA/S score); design: species or system human; details: subjects older than 65
patients = details: anesthetic induction doses; Bryson et al.; cited from earlier work

SMILES | Increase of central volume of propofol generated from the prodrug [1] | Increase of central volume of the prodrug [1] | Increase of clearance of the prodrug [1] | Stability at pH levels suitable for making pharmaceutical formulations [2] | Breakdown in vivo under physiological conditions ([2]; administered intravenously) | Lowering of effect site concentration at which a given MOAA/S score is attained, versus younger subjects ([3]; continuous model) | Lowering of effect site concentration at which a given MOAA/S score is attained, versus younger subjects ([3]; probabilistic model) | Patients with respiratory consequences, including a reduction in tidal volume and apnea (patients)
CC(C)c1cccc(C(C)C)c1OCOP(=O)([O-])[O-].[Na+].[Na+] [propofol prodrug, O-phosphonooxymethyl propofol disodium salt] | 2.5 % per kg of LBW over 55 kg | 1.8 % per kg of LBW over 55 kg | 1.4 % per kg of LBW over 55 kg | good stability | quickly breaks down in vivo | about 25% | about 33% | –
CC(C)c1cccc(C(C)C)c1O [propofol] | – | – | – | – | – | – | – | up to 83%
